Source: patent US20240390315A1, “NUTRITIONAL COMPOSITIONS” (MITOCHOLINE Ltd, priority 2021, published 2024)

Assays:
[1] = plasma, healthy adult males, single oral beverage supplying 550 mg choline, after overnight fasting; ranking among the three supplements
Description: Study: a randomized cross-over study on 12 adult male subjects.
Subjects: 12 healthy adult male subjects (3 placebo and 9 test supplement (each supplement group-3 subjects)) who are between 30 and 60 years of age.
Duration: One-day oral administration of a choline supplement was followed by 1 week of wash-out before the start of administration of the next (different) choline supplement.
Subjects took each of the three supplements in randomized sequence with interspersed wash-out periods of 1 week. […] The beverages were consumed in the morning after overnight fasting. Blood (2.7 ml EDTA) was taken before intake (−0.1 h) and at 0.5, 1, 1.5, 2, 3, 4, 5, and 6 h after intake. Collected blood was immediately centrifuged at 1000×g at room temperature for 10 min. Plasma was separated and stored at −80° C. until analysis. […] Equipment for analysis: TSQ Quantum Discovery MAX tandem mass spectrometer, a Finnigan Surveyor Autosampler Plus, and a Finnigan Surveyor MS Pump Plus (Thermo Fisher Scientific, Dreieich, Germany), and choline, betaine were separated on a Polaris Si-A® column at 40° C. and the components were analyzed.

isolated mitochondria = details: rat liver mitochondria incubated 15 min at 37° C. with test substrate, LC-MS/MS; compared with choline chloride
Experimental: Livers from male Wistar rats were homogenized using a Teflon®-glass Potter-Elvehjem homogenizer in the isolation medium containing 0.25 M sucrose, 0.02 M Tris-HCl, 0.001 M EDTA, pH 7.2. The homogenates prepared in this way were centrifuged at 600 g for 10 min at 4° C. to precipitate nuclei and cell debris. Then the supernatant was separated from the sediment and subjected to centrifugation at 8500 g for 10 min at 4° C. to precipitate mitochondria.

[2] = biological target: neuronal insulin receptor (Homo sapiens, UniProt P06213); details: cited from earlier work
Chain of neuronal insulin receptor (P06213 28-1382): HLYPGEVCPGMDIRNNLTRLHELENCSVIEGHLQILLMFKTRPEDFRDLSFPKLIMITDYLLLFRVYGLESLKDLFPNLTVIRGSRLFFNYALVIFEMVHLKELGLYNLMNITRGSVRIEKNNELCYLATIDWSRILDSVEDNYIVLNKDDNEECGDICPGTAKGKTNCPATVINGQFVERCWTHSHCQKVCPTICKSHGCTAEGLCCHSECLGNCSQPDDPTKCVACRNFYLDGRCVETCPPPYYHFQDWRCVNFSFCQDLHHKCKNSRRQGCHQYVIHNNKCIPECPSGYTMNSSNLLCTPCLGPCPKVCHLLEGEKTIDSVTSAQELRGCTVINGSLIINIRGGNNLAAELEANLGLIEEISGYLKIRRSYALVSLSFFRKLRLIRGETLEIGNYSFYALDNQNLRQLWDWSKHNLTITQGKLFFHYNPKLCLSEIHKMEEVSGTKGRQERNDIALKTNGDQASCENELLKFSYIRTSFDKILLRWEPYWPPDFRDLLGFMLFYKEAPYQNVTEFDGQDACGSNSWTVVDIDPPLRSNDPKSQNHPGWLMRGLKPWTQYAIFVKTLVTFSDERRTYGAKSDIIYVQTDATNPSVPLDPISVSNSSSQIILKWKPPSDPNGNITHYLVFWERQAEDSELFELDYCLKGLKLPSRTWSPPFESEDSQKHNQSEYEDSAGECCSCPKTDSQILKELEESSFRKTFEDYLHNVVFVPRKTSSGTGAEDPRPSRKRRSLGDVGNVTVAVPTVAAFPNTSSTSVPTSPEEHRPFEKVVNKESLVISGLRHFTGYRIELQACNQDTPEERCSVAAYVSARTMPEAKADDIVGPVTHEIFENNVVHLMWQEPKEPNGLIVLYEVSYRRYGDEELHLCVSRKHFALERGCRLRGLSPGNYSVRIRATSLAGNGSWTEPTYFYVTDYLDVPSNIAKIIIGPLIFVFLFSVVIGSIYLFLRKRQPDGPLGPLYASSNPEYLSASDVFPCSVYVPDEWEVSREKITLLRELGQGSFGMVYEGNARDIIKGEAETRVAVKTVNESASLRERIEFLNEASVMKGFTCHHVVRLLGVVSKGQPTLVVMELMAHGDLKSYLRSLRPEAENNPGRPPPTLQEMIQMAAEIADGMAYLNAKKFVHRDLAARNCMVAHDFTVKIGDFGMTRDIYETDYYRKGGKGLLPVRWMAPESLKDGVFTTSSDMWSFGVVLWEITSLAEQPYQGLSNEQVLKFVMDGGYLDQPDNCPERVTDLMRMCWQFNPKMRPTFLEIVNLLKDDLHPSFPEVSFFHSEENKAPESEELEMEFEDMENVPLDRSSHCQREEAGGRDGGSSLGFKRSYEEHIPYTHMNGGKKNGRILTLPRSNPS

Row | Molecule | AUC (0-6 h) of betaine concentrations [1] | betaine yield (concentration of betaine in the incubation medium) (isolated mitochondria) | sensitization of the neuronal insulin receptor [2]
1 | C[N+](C)(C)CCO.O=C([O-])C(O)C(O)C(=O)O (stereo not shown) [choline bitartrate] | dicholine succinate>choline bitartrate>choline chloride | – | –
2 | C[N+](C)(C)CCO.[Cl-] [choline chloride] | lowest | – | –
3 | dicholine succinate [DiSu] | – | higher betaine yields | potent sensitizer
